We go through seven compounds from patent US20050209195A1, “Indolinone derivatives” (Cell Therapeutics Europe S.r.I, priority 2004, published 2005).

Series [1] deals with T1, Human cKit Tyrosine Kinase Receptor (human cKit RTK-catalytic domain) (Homo sapiens, UniProt P10721).
T1 construct: human cKit RTK-catalytic domain; purchased Panvera-Invitrogen P3080
Description: DELFIA cKit Tyrosine Kinase Assay (cell-free). It counts as biochemical. Conditions: cell-free DELFIA, 25 ng cKit TKR, 150 μM ATP, 20 minutes at 30° C.; read-out: IC50. The procedure:
The compounds of the invention were tested with a dedicated cell-free kinase assay for the evaluation of the inhibiting activity on tyrosine kinases.
In more detail, the assay was a DELFIA™ (Dissociation Enhanced Time-Resolved Fluorometric Assay) Tyrosine Kinase Assay™ (PerkinElmer), a highly sensitive, reproducible ELISA assay that allows to evaluate the activity of a tyrosine kinase.
Human cKit Tyrosine Kinase Receptor (human cKit RTK-catalytic domain), commercially available from Panvera-Invitrogen (Cat. N^o. P3080), was used as the tyrosine kinase.
After 1 hour incubation at room temperature and three washings with 1×DELFIA Wash Buffer (PerkinElmer), the phosphotyrosine residues of the acceptor were detected with an europium-labelled anti-phosphotyrosine monoclonal antibody (DELFIA Eu-N1 labelled anti-phosphotyrosine antibody PT66, PerkinElmer) and, after a further hour incubation at room temperature and three washings with 1×DELFIA Wash Buffer, overall phosphorylation of biotinylated polyGAT was determined by addition of Enhancement Solution (PerkinElmer) and fluorimetric analysis of the plates (α-Fusion FP HT, PerkinElmer) in the “Time-Resolved Fluorescence” mode.

Series [2] deals with NIH3T3^MEN2A(C634R) cells. Description: Reversal of morphologically transformed phenotype, contrast phase microscopy, 24 h. The settings on record: 24 h treatment; for minimal effective concentration: Mus musculus, NIH3T3MEN2A, read-out: Morphology a 24 h: concentration from which reversal was observed. It counts as cell-based, murine. The procedure: (§1) NIH3T3 Murine fibroblasts and the transfected line NIH3T3^MEN2A(C634R) were treated with increasing concentrations of the compounds of the invention for 72 h. Survival curves were obtained by Coulter Counter cell count. IC50s calculated from said curves are reported in Table 9: the higher sensitivity of the oncoprotein-expressing cell line is evident. The reversal of the morphologically transformed phenotype of NIH3T3^MEN2A (C634R) cells in the presence of the compounds of the invention was evaluated by contrast phase microscopy after 24 h treatment and photographically documented.

Series [3] concerns the target T2, human Ret TKR-catalytic domain (Homo sapiens, UniProt P07949).
T2 construct: human Ret TKR-catalytic domain; purchased ProQinase
T2 sequence (P07949 724-1016 limits assumed): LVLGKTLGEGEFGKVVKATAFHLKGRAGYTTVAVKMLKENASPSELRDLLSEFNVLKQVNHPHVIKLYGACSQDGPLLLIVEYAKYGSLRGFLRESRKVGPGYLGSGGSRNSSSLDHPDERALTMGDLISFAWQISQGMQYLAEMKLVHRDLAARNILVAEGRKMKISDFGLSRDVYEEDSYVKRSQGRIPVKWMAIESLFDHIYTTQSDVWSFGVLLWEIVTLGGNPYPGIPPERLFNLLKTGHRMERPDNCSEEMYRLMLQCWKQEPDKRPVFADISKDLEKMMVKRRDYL
Description: DELFIA Ret Kinase Assay (cell-free). The class given is biochemical. Conditions: cell-free DELFIA, 50 ng Ret TKR, 3 μM ATP, 10 min. at 30° C.; read-out: IC50. The procedure:
In order to evidence and quantify inhibitory activity on Ret tyrosine kinase, the most representative compounds of the invention were tested with a dedicated DELFIA kinase assay, using a human tyrosine-kinase receptor (Ret TKR) recombinant form (human Ret TKR-catalytic domain) available from ProQinase as the tyrosine kinase.
After 10 min. incubation at 30° C., the kinase reactions were worked up as in the DELFIA cKit Kinase Assay.

Series [4] deals with NIH3T3^MEN2A(C634R) cells. Description: Survival curves by Coulter Counter cell count, 72 h. The settings on record: Mus musculus, NIH3T3MEN2A, 72 h treatment, read-out: Cont at 72 h IC50. It counts as cell-based, murine. The procedure: as §1
Series [5] deals with Ret/MEN2A (mutC634R and mutC634W). Conditions: cited from earlier work.
A further series concerns the target Met (Homo sapiens, UniProt P08581). The settings on record: cited from earlier work.
The next series concerns Kit (c-Kit and mutΔ559). The settings on record: cited from earlier work.
Series [6] has as its system tyrosine kinases Ret/MEN2A, Ret/MEN2B, Met, PDGF-R, FGF-R1, FGF-R3 and Kit. The settings on record: cited from earlier work.
In a further series the target is Ret/MEN2B (mutM918T) (Homo sapiens, UniProt P07949, M918T). The settings on record: cited from earlier work.
Sequence of Ret/MEN2B (mutM918T) (P07949 29-1114 M918T): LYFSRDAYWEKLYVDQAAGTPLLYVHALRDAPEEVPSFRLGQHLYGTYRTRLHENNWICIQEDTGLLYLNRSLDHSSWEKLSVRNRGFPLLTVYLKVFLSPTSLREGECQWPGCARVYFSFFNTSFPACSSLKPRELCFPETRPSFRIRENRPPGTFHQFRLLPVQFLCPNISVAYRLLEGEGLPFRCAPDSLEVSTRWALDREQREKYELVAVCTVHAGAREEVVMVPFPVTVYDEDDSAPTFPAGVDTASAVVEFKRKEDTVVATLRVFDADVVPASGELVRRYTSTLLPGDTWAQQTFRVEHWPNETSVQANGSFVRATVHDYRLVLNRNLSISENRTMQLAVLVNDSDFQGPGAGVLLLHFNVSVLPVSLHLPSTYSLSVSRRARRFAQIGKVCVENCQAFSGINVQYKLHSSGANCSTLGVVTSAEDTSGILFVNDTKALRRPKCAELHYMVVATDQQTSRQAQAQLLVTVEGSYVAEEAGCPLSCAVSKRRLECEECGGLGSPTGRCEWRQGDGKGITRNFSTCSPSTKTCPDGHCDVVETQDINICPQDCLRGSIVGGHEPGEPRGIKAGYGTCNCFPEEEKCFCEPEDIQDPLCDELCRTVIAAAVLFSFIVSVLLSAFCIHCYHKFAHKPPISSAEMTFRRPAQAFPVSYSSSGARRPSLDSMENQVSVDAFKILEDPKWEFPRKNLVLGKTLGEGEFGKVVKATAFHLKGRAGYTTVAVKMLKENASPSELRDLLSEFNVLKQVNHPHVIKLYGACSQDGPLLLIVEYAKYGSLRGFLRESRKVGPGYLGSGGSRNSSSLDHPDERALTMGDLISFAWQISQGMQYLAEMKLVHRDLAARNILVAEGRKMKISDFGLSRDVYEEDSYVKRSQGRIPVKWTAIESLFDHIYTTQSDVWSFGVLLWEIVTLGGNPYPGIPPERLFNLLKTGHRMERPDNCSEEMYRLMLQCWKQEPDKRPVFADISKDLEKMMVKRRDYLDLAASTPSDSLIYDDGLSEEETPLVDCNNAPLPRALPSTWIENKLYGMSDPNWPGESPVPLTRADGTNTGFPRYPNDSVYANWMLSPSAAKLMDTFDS
The next series concerns the target FGF-R3 (Homo sapiens, UniProt P22607). Conditions: cited from earlier work.
The test system of series [7] is cells transformed by Ret/MEN2A, Ret/MEN2B, Met, PDGF-R, FGF-R1, FGF-R3 and Kit. Conditions: cited from earlier work.
The next series addresses FGF-R1 (Homo sapiens, UniProt P11362). Conditions: cited from earlier work.
For series [8], the system named is NIH3T3 cells transformed by oncoprotein Ret/ptc1. The settings on record: cited from earlier work.
The subject of the next series is PDGF-R. The settings on record: cited from earlier work.

T1 sequence (P10721 589-937 limits assumed): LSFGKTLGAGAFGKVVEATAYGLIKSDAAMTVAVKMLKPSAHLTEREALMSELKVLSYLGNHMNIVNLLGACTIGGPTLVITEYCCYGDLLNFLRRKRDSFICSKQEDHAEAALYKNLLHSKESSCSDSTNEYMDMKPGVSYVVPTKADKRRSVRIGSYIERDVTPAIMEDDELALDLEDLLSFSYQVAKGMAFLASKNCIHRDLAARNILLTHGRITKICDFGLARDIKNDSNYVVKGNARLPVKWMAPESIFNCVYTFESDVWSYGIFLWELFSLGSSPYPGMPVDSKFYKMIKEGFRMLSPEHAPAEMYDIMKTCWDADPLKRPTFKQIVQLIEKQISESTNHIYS
Sequence of FGF-R1 (P11362 22-822, species assumed): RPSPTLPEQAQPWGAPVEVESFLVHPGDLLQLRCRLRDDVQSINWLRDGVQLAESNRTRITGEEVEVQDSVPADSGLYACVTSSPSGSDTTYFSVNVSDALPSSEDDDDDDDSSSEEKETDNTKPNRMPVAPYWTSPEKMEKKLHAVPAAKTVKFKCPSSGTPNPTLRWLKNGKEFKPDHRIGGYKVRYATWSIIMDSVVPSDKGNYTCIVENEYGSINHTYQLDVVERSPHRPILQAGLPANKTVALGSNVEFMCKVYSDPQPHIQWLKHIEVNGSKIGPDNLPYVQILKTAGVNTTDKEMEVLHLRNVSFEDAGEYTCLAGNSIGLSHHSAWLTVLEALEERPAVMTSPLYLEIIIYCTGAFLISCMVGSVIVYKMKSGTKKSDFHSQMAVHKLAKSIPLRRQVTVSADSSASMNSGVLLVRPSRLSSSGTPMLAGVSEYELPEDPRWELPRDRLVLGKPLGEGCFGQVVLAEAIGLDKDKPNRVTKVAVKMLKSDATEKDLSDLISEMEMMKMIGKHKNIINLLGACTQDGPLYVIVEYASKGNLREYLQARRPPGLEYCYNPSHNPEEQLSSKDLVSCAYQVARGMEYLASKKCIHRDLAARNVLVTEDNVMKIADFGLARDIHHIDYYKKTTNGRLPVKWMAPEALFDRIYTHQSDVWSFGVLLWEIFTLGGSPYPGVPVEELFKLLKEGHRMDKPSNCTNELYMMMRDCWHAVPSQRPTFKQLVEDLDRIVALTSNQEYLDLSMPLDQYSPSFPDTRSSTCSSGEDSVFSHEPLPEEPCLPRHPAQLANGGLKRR
Sequence of FGF-R3 (P22607 23-806, species assumed): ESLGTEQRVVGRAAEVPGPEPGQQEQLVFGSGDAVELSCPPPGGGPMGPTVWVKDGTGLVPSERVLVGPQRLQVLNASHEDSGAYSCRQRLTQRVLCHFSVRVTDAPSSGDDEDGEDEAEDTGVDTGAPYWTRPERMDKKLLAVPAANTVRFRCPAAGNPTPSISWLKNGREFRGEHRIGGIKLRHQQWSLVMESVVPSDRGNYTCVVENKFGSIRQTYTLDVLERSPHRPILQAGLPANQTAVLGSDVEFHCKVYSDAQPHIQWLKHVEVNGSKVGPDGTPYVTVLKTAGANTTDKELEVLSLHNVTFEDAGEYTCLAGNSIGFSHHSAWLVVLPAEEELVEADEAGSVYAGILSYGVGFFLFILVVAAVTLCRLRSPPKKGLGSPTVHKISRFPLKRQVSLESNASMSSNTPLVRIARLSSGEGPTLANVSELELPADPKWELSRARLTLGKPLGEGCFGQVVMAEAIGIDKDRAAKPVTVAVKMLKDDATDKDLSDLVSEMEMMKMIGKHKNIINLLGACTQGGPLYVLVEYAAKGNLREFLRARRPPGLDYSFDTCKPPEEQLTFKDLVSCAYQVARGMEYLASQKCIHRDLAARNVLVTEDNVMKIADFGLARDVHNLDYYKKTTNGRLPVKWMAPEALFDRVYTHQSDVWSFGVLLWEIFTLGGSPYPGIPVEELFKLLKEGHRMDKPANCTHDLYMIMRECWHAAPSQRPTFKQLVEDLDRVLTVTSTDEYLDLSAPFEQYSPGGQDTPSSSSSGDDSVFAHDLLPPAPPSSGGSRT
Sequence of Met (P08581 25-1390): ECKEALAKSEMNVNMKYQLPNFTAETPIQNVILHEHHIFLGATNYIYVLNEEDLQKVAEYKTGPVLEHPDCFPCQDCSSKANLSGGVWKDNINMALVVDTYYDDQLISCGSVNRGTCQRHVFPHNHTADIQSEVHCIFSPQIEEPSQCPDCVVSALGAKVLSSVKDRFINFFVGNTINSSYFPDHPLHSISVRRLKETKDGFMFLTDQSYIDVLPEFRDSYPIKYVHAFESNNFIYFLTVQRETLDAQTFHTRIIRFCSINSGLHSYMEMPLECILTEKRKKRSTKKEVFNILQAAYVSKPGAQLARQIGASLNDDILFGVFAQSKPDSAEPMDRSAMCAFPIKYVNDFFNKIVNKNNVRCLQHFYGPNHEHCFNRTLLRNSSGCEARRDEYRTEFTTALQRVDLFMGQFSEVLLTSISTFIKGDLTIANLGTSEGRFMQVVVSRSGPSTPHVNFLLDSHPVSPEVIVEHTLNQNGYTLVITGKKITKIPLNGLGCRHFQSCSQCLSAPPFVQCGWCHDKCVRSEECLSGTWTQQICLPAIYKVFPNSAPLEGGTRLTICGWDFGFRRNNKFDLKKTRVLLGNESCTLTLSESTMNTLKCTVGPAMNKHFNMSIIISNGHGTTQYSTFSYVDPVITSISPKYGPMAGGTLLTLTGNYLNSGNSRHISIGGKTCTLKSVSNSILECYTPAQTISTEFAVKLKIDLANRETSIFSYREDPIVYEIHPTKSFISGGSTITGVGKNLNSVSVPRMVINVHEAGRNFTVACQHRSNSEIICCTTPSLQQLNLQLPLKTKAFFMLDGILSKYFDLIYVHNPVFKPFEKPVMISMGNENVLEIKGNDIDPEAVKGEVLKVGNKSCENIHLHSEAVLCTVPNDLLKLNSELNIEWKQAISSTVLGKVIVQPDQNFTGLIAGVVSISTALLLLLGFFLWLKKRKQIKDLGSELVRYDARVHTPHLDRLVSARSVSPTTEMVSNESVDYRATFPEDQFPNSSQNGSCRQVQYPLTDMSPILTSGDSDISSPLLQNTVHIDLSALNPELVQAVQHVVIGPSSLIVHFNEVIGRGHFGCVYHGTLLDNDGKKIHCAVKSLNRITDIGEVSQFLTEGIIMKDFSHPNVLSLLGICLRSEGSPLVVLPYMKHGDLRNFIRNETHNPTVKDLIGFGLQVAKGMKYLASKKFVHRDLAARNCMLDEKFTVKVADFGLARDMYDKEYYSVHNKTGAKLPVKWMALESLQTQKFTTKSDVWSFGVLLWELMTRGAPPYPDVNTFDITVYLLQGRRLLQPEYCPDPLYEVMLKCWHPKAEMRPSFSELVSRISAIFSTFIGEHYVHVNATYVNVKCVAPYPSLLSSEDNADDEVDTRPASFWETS

For orientation: melting point means the temperature of the solid-liquid transition. What is called IC50 is the concentration that inhibits the measured activity by half. `COc1cc2c(cc1OC)/C(=C\c1ccc(OC(=O)N3CCC(N4CCCCC4)CC3)cc1)C(=O)N2` [B.5, 4-(1′-Piperidinyl)-1-piperidinecarboxylic Acid, (E)-4-(5,6-dimethoxy-2-oxo-1,2-dihydro-indol-3-ylidenemethyl)phenyl Ester] yielded a melting point of 235 to 237 °C. Moreover, in series [1], the IC50 was found to be 4.68 µM. Further, in [2], the “Morphology a 24 h” value is listed as “REVERSAL” and the minimal effective concentration was at least 5 µM. In series [3], the IC50 was determined as 2170 nM. Further, the IC50 in series [4] turned out to be 2 ± 0.7 µM.
`CCCCCNC(=O)Oc1ccc(/C=C2/C(=O)Nc3cc(OC)c(OC)cc32)cc1` [A.3, n-Pentyl Carbamic Acid, (E)-4-(5,6-dimethoxy-2-oxo-1,2-dihydro-indol-3-ylidenemethyl)phenyl Ester] gave a melting point of 173 to 175 °C. For the same compound, the IC50 in [1] amounted to 0.38 ± 0.16 µM. In series [2], the “Morphology a 24 h” value is on record as “REVERSAL” and the minimal effective concentration was at least 5 µM. Moreover, in [3], the IC50 is 1780 nM. Moreover, the IC50 in series [4] stood at 2.2 ± 0.7 µM.
`COc1ccc(OC(=O)Oc2ccc(/C=C3/C(=O)Nc4cc(OC)c(OC)cc43)cc2)cc1` [Example H.1, (E)-4-(5,6-dimethoxy-2-oxo-1,2-dihydro-indol-3-ylidenemethyl)phenyl, 4-methoxyphenyl Carbonate] had a melting point of 165 to 167 °C. In addition, the IC50 in series [1] was 1.19 µM. In [2], the “Morphology a 24 h” value is “REVERSAL” and the minimal effective concentration is at least 10 µM. Besides, the IC50 in series [3] was found to be 4430 nM. For the same compound, in series [4], the IC50 came to 3.3 ± 0.03 µM.
For the compound `COc1cc2c(cc1OC)/C(=C\c1ccc(O)cc1)C(=O)N2` [(E)-1,3-dihydro-4-hydroxybenzylidene-5,6-dimethoxy-1H-indol-2-one], the inhibition of self-phosphorylation entry is given as “fully inhibiting” in series [5]; “fully inhibiting” at Met; “fully inhibiting” in the series on Kit (c-Kit and mutΔ559); “fully inhibiting” at Ret/MEN2B (mutM918T); “fully inhibiting” at FGF-R3; “fully inhibiting” on FGF-R1. For the same compound, the inhibition of self-phosphorylation entry in the series with PDGF-R is “fully inhibiting”. In addition, the IC50 in series [1] was found to be 2.37 ± 0.68 µM; in series [3] it was 3670 nM; in series [4] it was 3.6 ± 1.6 µM. Also, the “down regulation of tyrosine kinase expression” value in [6] is reported as “down regulating their expression”. Moreover, in series [2], the “Morphology a 24 h” value is “REVERSAL”. Also, the minimal effective concentration in series [2] was at least 6 µM. Also, the “restoring the phenotype of transformed cells” value in series [7] is on record as “restoring the phenotype of cells transformed by them”. Further, in series [8], the “restoring the normal phenotype in transformed cells” value was “restoring the normal phenotype”.
With `COc1cc2c(cc1OC)/C(=C\c1ccc(OC(=O)N3CCN(C)CC3)cc1)C(=O)N2` [Example B.1, (E)-4-methyl-piperazine-1-carboxylic Acid, 4-(5,6-dimethoxy-2-oxo-1,2-dihydro-indol-3-ylidenemethyl)phenyl Ester], the melting point was 198 to 200 °C. In addition, the IC50 in [1] stood at 4.46 µM. Moreover, in [2], the “Morphology a 24 h” value is “REVERSAL” and the minimal effective concentration was at least 10 µM. In [3], the IC50 was 13300 nM. In series [4], the IC50 amounted to 2.8 ± 0.5 µM.
`COc1cc2c(cc1OC)/C(=C\c1ccc(OP(=O)(O)O)cc1)C(=O)N2` [Example C.1, (E)-4-(5,6-dimethoxy-2-oxo-1,2-dihydro-indol-3-ylidenemethyl)phenyl Phosphoric Acid] showed a melting point of 218 to 220 °C. The IC50 in series [1] amounted to 51.8 µM. Besides, in series [2], the “Morphology a 24 h” value is given as “REVERSAL” and the minimal effective concentration is at least 10 µM. The IC50 in series [3] turned out to be 2610 nM. Further, in series [4], the IC50 is 3.9 ± 0.25 µM.
Regarding `COc1cc2c(cc1OC)/C(=C\c1ccc(OC(=O)N3CCN(CCO)CC3)cc1)C(=O)N2` [B.3, 4-(2-Hydroxyethyl)piperazine-1-carboxylic Acid, (E)-4-(5,6-dimethoxy-2-oxo-1,2-dihydro-indol-3-ylidenemethyl)phenyl Ester], the melting point lay within 217 to 220 °C. Moreover, in [1], the IC50 was 6.74 µM. The “Morphology a 24 h” value in series [2] is listed as “REVERSAL”. The IC50 in series [3] was 1770 nM. For the same compound, the IC50 in series [4] came to 3.1 ± 1.3 µM.
